Source: ChEMBL document CHEMBL5032511, “Improving Druggability of Novel Diarylpyrimidine NNRTIs by a Fragment-Based Replacement Strategy: From Biphenyl-DAPYs to Heteroaromatic-Biphenyl-DAPYs” (J Med Chem, 2021)

Experiments:
[1] = AUC (all) in Sprague-Dawley rat at 1 mg/kg, iv by LCMS analysis; format: ADME, organism-based; parameters: dose 1 mg/kg; settings: in vivo
[2] = Oral bioavailability in Sprague-Dawley rat at 5 mg/kg by LCMS analysis; format: ADME, organism-based; settings: in vivo
[3] = MRT (infinity) in Sprague-Dawley rat at 1 mg/kg, iv by LCMS analysis; format: ADME, organism-based; settings: in vivo
[4] = AUC (infinity) in Sprague-Dawley rat at 5 mg/kg, po by LCMS analysis; format: ADME, organism-based; parameters: route oral, time infinity, dose 5 mg/kg; settings: in vivo
[5] = Stability in mouse liver microsome assessed as half life at 1 uM in presence of NADPH by LC/MS/MS analysis; format: ADME; settings: liver microsomes
[6] = Acute toxicity in fasted mouse assessed as pathological changes in brain at 2 g/Kg, IG upto 2 weeks after 14 days by H and E staining based analysis; format: tissue-based; settings: in vivo, po, 2000 mg/kg, 336 h
[7] = AUC (all) in Sprague-Dawley rat at 5 mg/kg, po by LCMS analysis; format: ADME, organism-based; parameters: dose 5 mg/kg; settings: in vivo
[8] = Acute toxicity in fasted mouse assessed as pathological changes in spleen at 2 g/Kg, IG upto 2 weeks after 14 days by H and E staining based analysis; format: tissue-based; settings: in vivo, po, 2000 mg/kg, 336 h
[9] = Half life in Sprague-Dawley rat at 1 mg/kg, iv by LCMS analysis; format: ADME, organism-based; settings: in vivo
[10] = MRT (infinity) in Sprague-Dawley rat at 5 mg/kg, po by LCMS analysis; format: ADME, organism-based; settings: in vivo
in vitro [11] = settings: human, liver microsomes
[12] = Tmax in Sprague-Dawley rat at 5 mg/kg, po by LCMS analysis; format: ADME, organism-based; settings: in vivo
[13] = Acute toxicity in fasted mouse assessed as mouse death at 2 g/Kg, IG; settings: in vivo, po, 2000 mg/kg
[14] = Acute toxicity in fasted mouse assessed as pathological changes in lung at 2 g/Kg, IG upto 2 weeks after 14 days by H and E staining based analysis; format: tissue-based; settings: in vivo, po, 2000 mg/kg, 336 h
[15] = Acute toxicity in fasted mouse assessed as weight loss at 2 g/Kg, IG upto 2 weeks; settings: in vivo, po, 2000 mg/kg, 336 h
[16] = Acute toxicity in fasted mouse assessed as pathological changes in kidney at 2 g/Kg, IG upto 2 weeks after 14 days by H and E staining based analysis; format: tissue-based; settings: in vivo, po, 2000 mg/kg, 336 h
[17] = AUC (infinity) in Sprague-Dawley rat at 1 mg/kg, iv by LCMS analysis; format: ADME, organism-based; parameters: route intravenous, time infinity, dose 1 mg/kg; settings: in vivo
[18] = Half life in Sprague-Dawley rat at 5 mg/kg, po by LCMS analysis; format: ADME, organism-based; settings: in vivo
in vitro [19] = settings: rat, liver microsomes
[20] = Intrinsic clearance in mouse liver microsome at 1 uM in presence of NADPH by LC/MS/MS analysis; format: ADME; settings: liver microsomes, read-out: CLH
[21] = Acute toxicity in fasted mouse assessed as pathological changes in liver at 2 g/Kg, IG upto 2 weeks after 14 days by H and E staining based analysis; format: tissue-based; settings: in vivo, po, 2000 mg/kg, 336 h
[22] = Stability in mouse liver microsome assessed as binding constant at 1 uM in presence of NADPH by LC/MS/MS analysis; format: ADME; settings: microsomes
[23] = Clearance in Sprague-Dawley rat at 1 mg/kg, iv; format: ADME, organism-based; settings: in vivo
[24] = Stability in rat liver microsome assessed as binding constant at 1 uM in presence of NADPH by LC/MS/MS analysis; settings: microsomes
[25] = Acute toxicity in fasted mouse assessed as behavioral changes at 2 g/Kg, IG upto 2 weeks; settings: in vivo, po, 2000 mg/kg, 336 h
[26] = Cmax in Sprague-Dawley rat at 1 mg/kg, iv by LCMS analysis; format: ADME, organism-based; parameters: route intravenous, dose 1 mg/kg; settings: in vivo
in vitro [27] = settings: rat, liver microsomes; remark: listed apart in the source
[28] = Stability in human liver microsome assessed as binding constant at 1 uM in presence of NADPH by LC/MS/MS analysis; settings: microsomes
[29] = Acute toxicity in fasted mouse assessed as pathological changes in heart at 2 g/Kg, IG upto 2 weeks after 14 days by H and E staining based analysis; format: tissue-based; settings: in vivo, po, 2000 mg/kg, 336 h
in vitro [30] = settings: human, liver microsomes; remark: listed apart in the source

Cl.N#Cc1ccc(Nc2nccc(Nc3c(F)cc(-c4ccncc4)cc3F)n2)cc1
AUC [1]: 526 ng·h/mL
bioavailability [2]: 126%
MRT inf [3]: 50.4 min
AUC(0-inf) [4]: 3350 ng·h/mL
half-life at 1 µM [5]: 27 min
Activity [6]: Non-Toxic
AUC [7]: 3340 ng·h/mL
Activity [8]: Non-Toxic
half-life [9]: 45.6 min
MRT inf [10]: 101 min
half-life at 1 µM (in vitro [11]): 49 min
Tmax [12]: 34.8 min
Activity [13]: Non-Toxic
Activity [14]: Non-Toxic
Activity [15]: Non-Toxic
Activity [16]: Non-Toxic
AUC(0-inf) [17]: 531 ng·h/mL
half-life [18]: 50.4 min
half-life at 1 µM (in vitro [19]): 32 min
microsomal CLint at 1 µM [20]: 52 µL/min/mg
Activity [21]: Non-Toxic
K [22]: 0.0259 min⁻¹
clearance [23]: 32 mL/min/kg
K [24]: 0.0215 min⁻¹
Activity [25]: Non-Toxic
Cmax [26]: 1370 ng/mL
microsomal CLint at 1 µM (in vitro [27]): 43 µL/min/mg
K [28]: 0.0142 min⁻¹
Activity [29]: Non-Toxic
microsomal CLint at 1 µM (in vitro [30]): 28 µL/min/mg
